Reference: ChEMBL document CHEMBL2057073, “Synthesis and structure-activity relationship studies of 1,3-disubstituted 2-propanols as BACE-1 inhibitors” (Bioorg Med Chem Lett, 2012)

Experiments:
Beta-secretase 1 [1] = target: T1, Beta-secretase 1 (Homo sapiens, UniProt P56817); experiment: Inhibition of BACE1 at 100 uM by FRET assay
Beta-secretase 1 [2] = target: T1, Beta-secretase 1; experiment: Inhibition of BACE1 at 50 uM by FRET assay
Beta-secretase 1 [3] = target: T1, Beta-secretase 1; experiment: Inhibition of BACE1 at 25 uM by FRET assay
Beta-secretase 1 [4] = target: T1, Beta-secretase 1; experiment: Inhibition of BACE1 by FRET assay
Cathepsin D = Cathepsin D (Homo sapiens, UniProt P07339); experiment: Inhibition of cathepsin D by FRET assay
Homo sapiens = species on record: Homo sapiens; experiment: Selectivity ratio of IC50 for cathepsin D to IC50 for BACE1

T1 sequence (P56817 whole entry): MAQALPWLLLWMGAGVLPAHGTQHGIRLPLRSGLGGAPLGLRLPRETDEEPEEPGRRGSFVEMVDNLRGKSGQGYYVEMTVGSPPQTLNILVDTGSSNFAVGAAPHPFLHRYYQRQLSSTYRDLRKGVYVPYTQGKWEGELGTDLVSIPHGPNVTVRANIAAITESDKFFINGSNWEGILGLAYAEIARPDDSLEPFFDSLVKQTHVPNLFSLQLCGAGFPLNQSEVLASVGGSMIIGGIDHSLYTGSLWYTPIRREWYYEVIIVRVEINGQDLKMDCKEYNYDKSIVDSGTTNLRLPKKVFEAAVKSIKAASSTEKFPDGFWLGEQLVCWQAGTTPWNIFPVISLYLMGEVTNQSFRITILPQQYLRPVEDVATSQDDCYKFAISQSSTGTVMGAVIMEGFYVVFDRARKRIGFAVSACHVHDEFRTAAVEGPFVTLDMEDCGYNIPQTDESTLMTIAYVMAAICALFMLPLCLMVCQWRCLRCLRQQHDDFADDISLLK
Cathepsin D, sequence (P07339 65-162 limits assumed): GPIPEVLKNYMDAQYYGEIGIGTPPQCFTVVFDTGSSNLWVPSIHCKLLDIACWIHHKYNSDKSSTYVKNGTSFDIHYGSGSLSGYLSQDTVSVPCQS
Cathepsin D, sequence (P07339 169-412 limits assumed): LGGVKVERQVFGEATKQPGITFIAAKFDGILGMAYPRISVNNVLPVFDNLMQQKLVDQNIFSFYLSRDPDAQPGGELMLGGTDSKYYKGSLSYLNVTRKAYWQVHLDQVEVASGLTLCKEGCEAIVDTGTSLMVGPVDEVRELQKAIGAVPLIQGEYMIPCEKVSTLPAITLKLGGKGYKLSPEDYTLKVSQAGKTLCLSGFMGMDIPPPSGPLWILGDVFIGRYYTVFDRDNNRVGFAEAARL

| Structure (SMILES) | inhibition (Beta-secretase 1 [1]) [%] | inhibition (Beta-secretase 1 [2]) [%] | inhibition (Beta-secretase 1 [3]) [%] | IC50 (Beta-secretase 1 [4]) [µM] | IC50 (Cathepsin D) [µM] | Ratio IC50 (Homo sapiens) |
| --- | --- | --- | --- | --- | --- | --- |
| CCc1ccccc1SCC(O)Cn1c(-c2ccccc2)cc2ccccc21 (stereo not drawn) | 80 | 72 | 60 | 10.3 |  |  |
| OC(CSc1ccc2ccccc2c1)Cn1c(-c2ccccc2)cc2ccccc21 (stereo not drawn) |  |  |  | 6.66 | > 300 | 50 |
| OC(CSc1ccc2ccccc2c1)CSc1ccc2ccccc2c1 |  |  |  | > 30 |  |  |
| Nc1cccc(SCC(O)Cn2c3ccccc3c3ccccc32)c1 (stereo not drawn) | 100 | 87 | 69 | 36.1 |  |  |
| c1ccc2cc(SCCCn3c4ccccc4c4ccccc43)ccc2c1 |  |  |  | 7.52 | > 300 |  |
| OC(CSc1ccc2ccccc2c1)Cn1c2ccccc2c2ccccc21 (stereo not drawn) | 76 | 74 | 64 | 4.93 | > 300 | 50 |
| O[C@H](CSc1ccc2ccccc2c1)Cn1c2ccccc2c2ccccc21 |  |  |  | 5.39 | > 300 |  |
| Oc1ccccc1SCC(O)Cn1c(-c2ccccc2)cc2ccccc21 (stereo not drawn) | 86 | 102 | 87 | 25.4 |  |  |
| OC(CSc1ccccc1Cl)Cn1c2c(c3ccccc31)CCCC2 (stereo not drawn) | 92 | 99 | 68 | 8.28 | > 300 |  |
| OC(Cn1c2ccccc2c2ccccc21)Cn1c2ccccc2c2ccccc21 |  |  |  | 0.71 | > 300 | > 422 |
| c1ccc2cc(SCC(Cn3c4ccccc4c4ccccc43)N3CCNCC3)ccc2c1 (racemic) |  |  |  | > 50 |  |  |
| NCCNC(CSc1ccc2ccccc2c1)Cn1c2ccccc2c2ccccc21 (racemic) |  |  |  | 7.38 | > 300 |  |
| OC(CCSc1ccc2ccccc2c1)Cn1c2ccccc2c2ccccc21 (stereo not drawn) |  |  |  | 6.74 | > 300 |  |
| CCc1cccc2ccn(CC(O)CSc3ccccc3Cl)c12 (stereo not drawn) | 99 | 87 | 65 | 7.52 | > 300 |  |
| O=C(CSc1ccc2ccccc2c1)Cn1c2ccccc2c2ccccc21 |  |  |  | > 80 |  |  |
| OC(CSc1ccc2ccccc2c1)Cn1ccc2ccccc21 (stereo not drawn) |  |  |  | 10.5 |  |  |
| OC(CCn1c2ccccc2c2ccccc21)Cn1c2ccccc2c2ccccc21 (stereo not drawn) |  |  |  | > 100 |  |  |
| NC(CSc1ccc2ccccc2c1)Cn1c2ccccc2c2ccccc21 (racemic) |  |  |  | 15.7 |  |  |

| Structure (SMILES) | inhibition (Beta-secretase 1 [1]) [%] | inhibition (Beta-secretase 1 [2]) [%] | inhibition (Beta-secretase 1 [3]) [%] | IC50 (Beta-secretase 1 [4]) [µM] | IC50 (Cathepsin D) [µM] | Ratio IC50 (Homo sapiens) |
| --- | --- | --- | --- | --- | --- | --- |
| O[C@@H](CSc1ccc2ccccc2c1)Cn1c2ccccc2c2ccccc21 |  |  |  | 7.98 | > 300 |  |
| OC(CCn1c2ccccc2c2ccccc21)CSc1ccc2ccccc2c1 (stereo not drawn) |  |  |  | 4.31 | > 300 |  |
| OC(CSc1ccccc1F)Cn1c2ccccc2c2ccccc21 (stereo not drawn) | 89 | 84 | 67 | 5.36 | > 300 |  |
| Oc1ccc(SCC(O)Cn2c(-c3ccccc3)cc3ccccc32)cc1 (stereo not drawn) | 86 | 77 | 72 | 13.6 |  |  |
| OC(CSc1ccc(F)cc1)Cn1c2c(c3ccccc31)CCCC2 (stereo not drawn) | 87 | 92 | 56 |  |  |  |
| OC(Cn1c2ccccc2c2ccccc21)C(O)Cn1c2ccccc2c2ccccc21 (stereo not drawn) |  |  |  | 8.82 | > 300 |  |
| Oc1ccc(SCC(O)COc2ccc(Cc3ccccc3)cc2)cc1 (stereo not drawn) | 94 | 100 | 85 | 10.7 |  |  |
| OC(CSc1ccccc1)Cn1c2ccccc2c2ccccc21 (stereo not drawn) | 86 | 85 | 79 |  |  |  |
| Cc1ccccc1SCC(O)Cn1c2c(c3ccccc31)CCC2 (stereo not drawn) | 92 | 89 | 73 | 21.4 |  |  |
| CCc1cccc2ccn(CC(O)CSc3ccc(F)cc3)c12 (stereo not drawn) | 86 | 41 | 48 |  |  |  |
| OC(COc1ccc(Cc2ccccc2)cc1)CSc1ccccc1Cl (stereo not drawn) | 81 | 73 | 62 | 9.6 | > 300 |  |
| OC(CSc1ccccc1F)Cn1c2c(c3ccccc31)CCCC2 (stereo not drawn) | 95 | 86 | 68 | 11 |  |  |
| OC(CSc1ccc2ccccc2c1)C(O)Cn1c2ccccc2c2ccccc21 (stereo not drawn) |  |  |  | 10.1 |  |  |
| COc1ccc(SCC(O)Cn2c3c(c4ccccc42)CCCC3)cc1 (stereo not drawn) | 87 | 90 | 58 | 15.2 |  |  |
| Cc1ccc(SCC(O)Cn2c(-c3ccccc3)cc3ccccc32)cc1 (stereo not drawn) | 76 | 65 | 45 |  |  |  |
| Cc1c(C)n(CC(O)CSc2ccccc2Cl)c2ccccc12 (stereo not drawn) | 100 | 93 | 68 |  |  |  |
| OC(CSc1ccc2ccccc2c1)Cn1c2c(c3ccccc31)CCC2 (stereo not drawn) | 87 | 80 | 43 |  |  |  |
